Results reported in patent US10660967B2, “Curcumin conjugates and methods of use thereof” (priority 2016, dated 2020).
Read-outs that look alike come from different tables or passages of the source.

Assays:
[1] = system: Candida albicans (local isolate); assay: Antimicrobial MIC, agar dilution; details: Candida albicans, read-out: Minimum inhibitory concentration (MIC)
[2] = system: Salmonella typhi ATCC19430; assay: Antimicrobial MIC, agar dilution; type: cell-based; details: Salmonella enterica, read-out: Minimum inhibitory concentration (MIC)
[3] = system: Pseudomonas aeruginosa ATCC27853; assay: Antimicrobial MIC, agar dilution
[4] = system: lipopolysaccharide-stimulated peritoneal macrophages; assay: Production of nitric oxide by lipopolysaccharide-stimulated peritoneal macrophages (Greiss reagent); type: cell-based; set-up: Potency (%): % inhibition of nitric oxide production relative to lipopolysaccharide-stimulated macrophages: concentration or dose not given beside the values; details: LPS-stimulated peritoneal macrophages; for Nitric oxide (nitrite) concentration, μM (average ± SD): 24 h, nitrite by Greiss reagent
Description: The effects of the synthesized curcumin conjugates on the production of nitric oxide (μM) by lipopolysaccharide-stimulated peritoneal macrophages were evaluated.
Two milliliters of macrophage cells were seeded in 12-well tissue culture plates in nitrite-free medium supplemented with 0.1% bovine serum albumin and incubated at 37° C. LPS±epinephrine, norepinephrine, or dopamine at […] concentrations was added to some wells. The concentrations of LPS used ranged from 0.5 to 10 ng/ml. After incubation for 24 h, supernatants were collected for measuring nitric oxide (NO) by spectrophotometry. The production of NO was determined from the accumulation of nitrite (NO2), the metabolic end product of NO metabolism, in the medium using the Greiss reagent. About equal volumes (100 μl) of sample and Greiss reagent (1:1 mixture of 1% sulfanilamide in 5% phosphoric acid, and 0.1% a-naphthylamine in distilled water) were mixed and incubated at room temperature for 15 min, and absorbance was measured at 532 nm on a spectrophotometer.

MCF-7 cells = assay: Effect on doxorubicin induced cytotoxicity (MTT); details: for Percentage of viable cells MCF-7 (average ± SD): 10 μM DOX in combination with 100 μM curcumin derivative, 48 hr; for viability at 100 µM: Homo sapiens, MCF7, 48 h, read-out: Percentage of viable cells MCF-7 (average ± SD)
Description: The effects of curcumin conjugates on doxorubicin induced cytotoxicity were evaluated. In order to further examine whether curcumin derivatives can enhance conventional chemotherapeutic agents, MCF-7 cells were treated with 100 μM curcumin derivatives alone or in combination with 10 μM doxorubicin (DOX) for 48 hr. Control cultures received only medium, vehicle (DMSO), or vehicle+DOX. The percentage of viable cells was determined by MTT assay according to equation (5): […]

[5] = system: PHA-stimulated splenocytes; assay: Proliferative response of PHA-stimulated splenocytes (MTT assay); type: cell-based; details: PHA 5 μg/ml, 72 hr; compounds at 5 μM (method says 10 μM); ratio of O.D. versus vehicle control
Description: Immunomodulatory effects of the synthesized curcumin conjugates on the proliferative response of PHA-stimulated splenocytes were evaluated. The effect of curcumin and its amino acid conjugates on splenocyte viability and proliferation in response to a T cell miotgen (Phytohaemagglutinin; PHA) was evaluated using the MTT assay. Freshly prepared splenocytes (1×10^6 cells/200 μl/well) were cultured in a 96-well U-bottom microtiter plate (Nunc) in complete medium. Cells were treated with tested compounds at a final concentration of 10 μM, vehicle (DMSO) or left untreated in triplicate then incubated at 37° C. and 5% CO2. When testing the immunoregulatory effects of the compounds on splenocyte stimulation, PHA (5 μg/ml) was added to the culture media to induce T cell proliferation. The proliferative response to PHA+vehicle and vehicle alone served as controls. After 72 hr, media were removed after pelleting the cells by centrifugation and MTT salt solution (5 mg/ml) was added into each well then incubated at 37° C. for 4 h. Afterwards, formazan crystals were dissolved by adding 150 μl 10% sodium dodecyl sulfate (SDS). Absorbance was measured with a spectrophotometer at 570 nm and reference wavelength of 690 nm.
Splenocyte stimulation index was determined as the ratio of O.D. values in tested compounds versus vehicle control cultures.

[6] = system: HCT116 (colon) carcinoma cell line; assay: Anti-tumor properties, MTT; type: cell-based; details: Homo sapiens, HCT-116; HCT116, 100 μM, 72 h; read-out: Percentage growth of tumor cell lines treated with the tested compounds (±SD)
Description: (§1) Anti-tumor properties of curcumin conjugates were evaluated. The synthesized curcumin-amino acid conjugates and curcumin itself were screened for their antitumor properties against human tumor cell lines utilizing HepG2 (hepatocellular), MCF7 (breast), and HCT116 (colon) carcinoma cell lines by the standard mitochondrial dependent reduction of yellow MTT [3-(4,5-dimethylthiazol-2-yl)-2,5-diphenyl-tetrazolium bromide] to purple formazan technique. Cancer cells were obtained from the Egyptian Company for Production of Vaccines, Sera and Drugs (VACSERA), Cairo, Egypt. Media, chemicals and supplies for the bio-assay were obtained from Biowest, Gibco and Lonza Companies. Cells were suspended in RPMI-1640 medium for HepG2, DMEMF12 for MCF-7, and DMEM for HCT116 in addition to 1% antibiotic-antimycotic mixture (10 […] potassium penicillin, 10 […] streptomycin sulfate and […] amphotericin B), 10% fetal bovine serum and 1% L-glutamine at 37° C., under 5% CO2 and 95% humidity. Cells were seeded at a concentration of 10×10^3 cells per well in fresh complete growth medium in 96-well tissue culture microtiter plates for 24 h. Media was aspirated, 180 μL fresh medium (without serum) were added and cells were incubated with different concentrations of sample to give a final concentration of 100 μM. 0.5% DMSO was used as a negative control and doxorubicin was used as a positive control (standard reference). Triplicate wells were prepared for each individual tested compound/dose. After 72 h of incubation, the medium was aspirated, 40 μL MTT salt (2.5 mg ml^1) were added to each well and incubated for an additional 4 h at 37° C. To stop the reaction and dissolve the formed crystals, 200 μL of 10% sodium dodecyl sulfate (SDS) in deionized water were added to each well and incubated overnight at 37° C. The absorbance was then measured at 595 nm with a reference wavelength of 620 nm. Data were collected as mean values for experiments performed in triplicates for each compound which had been measured by MTT assay.
(§2) The percentage of cell survival was calculated according to equation (4): […]
(§3) The IC50 was determined using Graph-Pad PRISM version-5 software. Statistical calculations for determination of the mean and standard deviation (SD) values were determined by SPSS 16 software.

[7] = system: HepG2 (hepatocellular) carcinoma cell line; assay: Anti-tumor properties, MTT; type: cell-based; details: Homo sapiens; HepG2, 100 μM, 72 h; read-out: Percentage growth of tumor cell lines treated with the tested compounds (±SD)
Description: as §1, §2, §3

[8] = system: MCF7 (breast) carcinoma cell line; assay: Anti-tumor properties, MTT; type: cell-based; details: Homo sapiens; MCF7, 100 μM, 72 h; read-out: Percentage growth of tumor cell lines treated with the tested compounds (±SD)
Description: as §1, §2, §3

[9] = system: Staphylococcus aureus ATCC25923; assay: Antimicrobial MIC, agar dilution
[10] = system: Streptococcus pyogenes ATCC19615; assay: Antimicrobial MIC, agar dilution
[11] = ATCC27853, 18 h, read-out: Minimum inhibitory concentration (MIC)
[12] = ATCC27853, read-out: Minimum inhibitory concentration (MIC)
[13] = ATCC25923, 18 h, read-out: Minimum inhibitory concentration (MIC)
[14] = ATCC25923, read-out: Minimum inhibitory concentration (MIC)
[15] = ATCC19615, 18 h, read-out: Minimum inhibitory concentration (MIC)
[16] = ATCC19615, read-out: Minimum inhibitory concentration (MIC)

COc1cc(/C=C/C(=O)CC(=O)/C=C/c2ccc(OC(=O)[C@H](Cc3c[nH]c4ccccc34)NC(=O)OCc3ccccc3)c(OC)c2)ccc1OC(=O)[C@H](Cc1c[nH]c2ccccc12)NC(=O)OCc1ccccc1 [Cbz-Trp-Cur, ((1E,6E)-3,5-dioxohepta-1,6-diene-1,7-diyl)bis(2-methoxy-4,1-phenylene) (2S,2′S)-bis(2-(((benzyloxy)carbonyl)amino)-3-(1H-indol-3-yl)propanoate)]
MIC ([1]; 18 h): 1 µg/mL | MIC [1]: 0.991 µM | MIC ([2]; 18 h): 0.125 µg/mL | MIC [2]: 0.124 µM | MIC [3, 11]: 0.25 µg/mL | MIC [3, 12]: 0.248 µM | Potency (%): % inhibition of nitric oxide production relative to lipopolysaccharide-stimulated macrophages [4]: 11.08% | Nitric oxide (nitrite) concentration, μM (average ± SD) [4]: 24.28 ± 0.82 µM | Percentage of viable cells MCF-7 (average ± SD) (MCF-7 cells): 45.17 ± 4.04 | viability at 100 µM (MCF-7 cells): 98.2 ± 2.96% | Stimulation Index (average ± SD) [5]: 2.60 ± 0.12 | activity at 100 µM [6]: 100 ± 7% | activity at 100 µM [7]: 97.6 ± 6.8% | activity at 100 µM [8]: 79.5 ± 0.6% | MIC [9, 13]: 0.125 µg/mL | MIC [9, 14]: 0.124 µM | MIC [10, 15]: 0.5 µg/mL | MIC [10, 16]: 0.496 µM

COc1cc(/C=C/C(=O)CC(=O)/C=C/c2ccc(OC(=O)[C@@H](NC(=O)OCc3ccccc3)C(C)C)c(OC)c2)ccc1OC(=O)[C@@H](NC(=O)OCc1ccccc1)C(C)C [Cbz-Val-Cur, ((1E,6E)-3,5-dioxohepta-1,6-diene-1,7-diyl)bis(2-methoxy-4,1-phenylene) (2S,2′S)-bis(2-(((benzyloxy)carbonyl)amino)-3-methylbutanoate)]
MIC ([1]; 18 h): 1 µg/mL | MIC [1]: 1.2 µM | MIC ([2]; 18 h): 0.125 µg/mL | MIC [2]: 0.15 µM | MIC [3, 11]: 0.25 µg/mL | MIC [3, 12]: 0.299 µM | Potency (%): % inhibition of nitric oxide production relative to lipopolysaccharide-stimulated macrophages [4]: 5.68% | Nitric oxide (nitrite) concentration, μM (average ± SD) [4]: 25.76 ± 0.99 µM | Percentage of viable cells MCF-7 (average ± SD) (MCF-7 cells): 49.68 ± 1.46 | viability at 100 µM (MCF-7 cells): 99.2 ± 2.15% | Stimulation Index (average ± SD) [5]: 2.87 ± 0.11 | activity at 100 µM [6]: 112 ± 7.9% | activity at 100 µM [7]: 92.4 ± 2.8% | activity at 100 µM [8]: 85% | MIC [9, 13]: 0.125 µg/mL | MIC [9, 14]: 0.15 µM | MIC [10, 15]: 0.5 µg/mL | MIC [10, 16]: 0.599 µM

COc1cc(/C=C/C(=O)CC(=O)/C=C/c2ccc(OC(=O)[C@H](C)NC(=O)OCC3c4ccccc4-c4ccccc43)c(OC)c2)ccc1OC(=O)[C@H](C)NC(=O)OCC1c2ccccc2-c2ccccc21 [Fmoc-Ala-Cur, ((1E,6E)-3,5-dioxohepta-1,6-diene-1,7-diyl)bis(2-methoxy-4,1-phenylene) (2S,2′S)-bis(2-((((9H-fluoren-9-yl)methoxy)carbonyl)amino)propanoate)]
MIC ([1]; 18 h): 1 µg/mL | MIC [1]: 1.05 µM | MIC ([2]; 18 h): 0.25 µg/mL | MIC [2]: 0.262 µM | MIC [3, 11]: 0.25 µg/mL | MIC [3, 12]: 0.262 µM | Potency (%): % inhibition of nitric oxide production relative to lipopolysaccharide-stimulated macrophages [4]: 20.22% | Nitric oxide (nitrite) concentration, μM (average ± SD) [4]: 21.79 ± 2.71 µM | viability at 100 µM (MCF-7 cells): 99.2 ± 3.65% | Stimulation Index (average ± SD) [5]: 2.22 ± 0.41 | activity at 100 µM [6]: 96.9 ± 3.2% | activity at 100 µM [7]: 78.3 ± 5.1% | activity at 100 µM [8]: 73.6 ± 2.2% | MIC [9, 13]: 0.5 µg/mL | MIC [9, 14]: 0.524 µM | MIC [10, 15]: 0.5 µg/mL | MIC [10, 16]: 0.524 µM

COc1cc(/C=C/C(=O)CC(=O)/C=C/c2ccc(OC(=O)[C@H](CC(C)C)NC(=O)OCC3c4ccccc4-c4ccccc43)c(OC)c2)ccc1OC(=O)[C@H](CC(C)C)NC(=O)OCC1c2ccccc2-c2ccccc21 [Fmoc-Leu-Cur, ((1E,6E)-3,5-dioxohepta-1,6-diene-1,7-diyl)bis(2-methoxy-4,1-phenylene) (2S,2′S)-bis(2-((((9H-fluoren-9-yl)methoxy)carbonyl)amino)-4-methylpentanoate)]
MIC ([1]; 18 h): 0.5 µg/mL | MIC [1]: 0.481 µM | MIC ([2]; 18 h): 0.5 µg/mL | MIC [2]: 0.481 µM | MIC [3, 11]: 0.25 µg/mL | MIC [3, 12]: 0.241 µM | Potency (%): % inhibition of nitric oxide production relative to lipopolysaccharide-stimulated macrophages [4]: 21.88% | Nitric oxide (nitrite) concentration, μM (average ± SD) [4]: 21.34 ± 0.86 µM | Percentage of viable cells MCF-7 (average ± SD) (MCF-7 cells): 41.16 ± 2.33 | viability at 100 µM (MCF-7 cells): 98.2 ± 2.98% | Stimulation Index (average ± SD) [5]: 2.16 ± 0.13 | activity at 100 µM [6]: 99.5 ± 3.8% | activity at 100 µM [7]: 103 ± 2.6% | activity at 100 µM [8]: 83 ± 1.1% | MIC [9, 13]: 0.25 µg/mL | MIC [9, 14]: 0.241 µM | MIC [10, 15]: 0.5 µg/mL | MIC [10, 16]: 0.481 µM

COc1cc(/C=C/C(=O)CC(=O)/C=C/c2ccc(OC(=O)[C@H](Cc3ccccc3)NC(=O)OCC3c4ccccc4-c4ccccc43)c(OC)c2)ccc1OC(=O)[C@H](Cc1ccccc1)NC(=O)OCC1c2ccccc2-c2ccccc21 [Fmoc-Phe-Cur, ((1E,6E)-3,5-dioxohepta-1,6-diene-1,7-diyl)bis(2-methoxy-4,1-phenylene) (2S,2′S)-bis(2-((((9H-fluoren-9-yl)methoxy)carbonyl)amino)-3-phenylpropanoate)]
MIC ([1]; 18 h): 0.5 µg/mL | MIC [1]: 0.452 µM | MIC ([2]; 18 h): 0.25 µg/mL | MIC [2]: 0.226 µM | MIC [3, 11]: 2 µg/mL | MIC [3, 12]: 1.81 µM | Potency (%): % inhibition of nitric oxide production relative to lipopolysaccharide-stimulated macrophages [4]: 31.01% | Nitric oxide (nitrite) concentration, μM (average ± SD) [4]: 18.84 ± 0.69 µM | Percentage of viable cells MCF-7 (average ± SD) (MCF-7 cells): 42.49 ± 2.71 | viability at 100 µM (MCF-7 cells): 98.3 ± 2.21% | Stimulation Index (average ± SD) [5]: 1.78 ± 0.10 | activity at 100 µM [6]: 110 ± 7.3% | activity at 100 µM [7]: 108 ± 3.6% | activity at 100 µM [8]: 84.7 ± 3.6% | MIC [9, 13]: 0.25 µg/mL | MIC [9, 14]: 0.226 µM | MIC [10, 15]: 0.125 µg/mL | MIC [10, 16]: 0.113 µM
